The values below are quoted from earlier work in patent publication US20070098804A1, “Solid particulate tadalafil having a bimodal particle size distribution” (priority 2005, published 2007).

SMILES strings stand for the structures.

For this data set the following is noted: crystalline solid, reported in the PDR.

Turning to `CN1CC(=O)N2[C@H](c3ccc4c(c3)OCO4)c3[nH]c4ccccc4c3C[C@@H]2C1=O` [Tadalafil], the solubility in water entry is listed as “practically insoluble in water”.
